From article PMC4399838, “Antipsychotic-Like Effect of the Muscarinic Acetylcholine Receptor Agonist BuTAC in Non-Human Primates” (PLoS ONE, 2015)
Where two headings read alike, the source gives them in different places.

Legend:
monkeys = assay: BuTAC-induced emesis and its inhibition by domperidone; format: in vivo, Cebus Apella; conditions: BuTAC 0.01 mg/kg alone; observed 300 minutes
Experimental: S1 Table. Emesis BuTAC / Domperidone
BuTAC 0.01 mg/kg / 1 in 7
Domperidone was purchased from Tocris Bioscience (Bristol, United Kingdom) and dissolved
in 0.9% saline. The compound was administered subcutaneously where after the animals

[1] = biological target: T1, human M4 muscarinic receptor (Homo sapiens, UniProt P08173); design: method as in Watt et al. 2013 [10]; conditions: ref Watt et al. 2013 [10], cited from earlier work
T1 construct: purchased PerkinElmer Life and Analytical Sciences, Boston, MA
T1 sequence (P08173 1-479): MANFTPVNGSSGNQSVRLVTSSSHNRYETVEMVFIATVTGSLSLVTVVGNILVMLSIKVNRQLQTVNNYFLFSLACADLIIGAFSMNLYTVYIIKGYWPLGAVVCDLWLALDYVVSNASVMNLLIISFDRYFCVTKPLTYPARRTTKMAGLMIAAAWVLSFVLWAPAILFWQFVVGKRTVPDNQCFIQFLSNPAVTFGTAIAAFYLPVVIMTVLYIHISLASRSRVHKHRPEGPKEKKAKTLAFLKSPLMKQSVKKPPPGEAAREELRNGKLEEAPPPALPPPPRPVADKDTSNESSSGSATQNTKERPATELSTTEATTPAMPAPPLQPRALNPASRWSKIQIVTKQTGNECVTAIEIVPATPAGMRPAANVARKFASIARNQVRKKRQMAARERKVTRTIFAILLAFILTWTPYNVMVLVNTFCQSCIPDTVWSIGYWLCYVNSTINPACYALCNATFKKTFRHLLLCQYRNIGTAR

[2] = biological target: T2, human M5 muscarinic receptor (Homo sapiens, UniProt P08912); design: method as in Watt et al. 2013 [10]; conditions: ref Watt et al. 2013 [10], cited from earlier work
T2 construct: purchased PerkinElmer Life and Analytical Sciences, Boston, MA
T2 sequence (P08912 1-532): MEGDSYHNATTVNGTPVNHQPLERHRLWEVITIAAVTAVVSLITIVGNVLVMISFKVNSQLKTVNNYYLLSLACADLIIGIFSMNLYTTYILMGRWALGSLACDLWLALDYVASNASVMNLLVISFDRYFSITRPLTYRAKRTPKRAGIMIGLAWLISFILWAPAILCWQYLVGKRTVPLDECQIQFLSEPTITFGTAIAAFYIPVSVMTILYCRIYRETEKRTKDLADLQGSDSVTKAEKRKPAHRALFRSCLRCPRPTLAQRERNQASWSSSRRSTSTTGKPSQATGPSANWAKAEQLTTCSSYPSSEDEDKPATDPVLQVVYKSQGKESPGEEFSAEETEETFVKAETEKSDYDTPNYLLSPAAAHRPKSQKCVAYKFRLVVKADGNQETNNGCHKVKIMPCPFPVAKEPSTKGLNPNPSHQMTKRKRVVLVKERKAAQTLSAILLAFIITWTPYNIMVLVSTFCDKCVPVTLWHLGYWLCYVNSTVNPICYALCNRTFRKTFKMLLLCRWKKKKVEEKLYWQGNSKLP

[3] = biological target: T3, human M1 muscarinic receptor (Homo sapiens, UniProt P11229); assay: GTP-γ-[35S] binding, antibody capture SPA (agonist and antagonist mode); format: biochemical
T3 construct: purchased PerkinElmer Life and Analytical Sciences, Boston, MA
T3 sequence (P11229 1-460): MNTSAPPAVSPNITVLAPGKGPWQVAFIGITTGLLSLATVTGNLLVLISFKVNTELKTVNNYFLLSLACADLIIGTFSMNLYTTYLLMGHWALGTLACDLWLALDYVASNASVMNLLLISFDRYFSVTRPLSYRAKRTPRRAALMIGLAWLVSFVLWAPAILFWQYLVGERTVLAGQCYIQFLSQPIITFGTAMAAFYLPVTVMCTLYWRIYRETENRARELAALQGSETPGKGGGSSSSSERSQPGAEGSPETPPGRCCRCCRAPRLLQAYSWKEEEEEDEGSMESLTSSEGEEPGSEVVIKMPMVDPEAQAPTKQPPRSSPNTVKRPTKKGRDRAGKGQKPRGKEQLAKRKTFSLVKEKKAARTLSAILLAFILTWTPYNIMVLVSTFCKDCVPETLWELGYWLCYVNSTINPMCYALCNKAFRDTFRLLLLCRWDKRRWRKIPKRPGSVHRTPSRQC
Experimental: (§1) The antibody capture scintillation proximity technique previously described by DeLapp et al was used in a 96-well plate to determine GTP-γ-[35S] binding. One hundred μl (20–40 fmol/well) of membrane preparation from CHO cells that stably express the human M1-M5 muscarinic receptors (PerkinElmer Life and Analytical Sciences, Boston, MA) were incubated with varying concentration of test compound (final concentrations from 50pM to 1μM) for 30 min. One μM final concentration of GDP was added to M2 and M4 receptor membranes before incubation. […] (500 pM final concentration; Perkin Elmer Life and Analytical Sciences) was added to each well followed by 30 min of incubation. […] An anti-Gαq/11 antibody was used for the M1-, M3-, and M5 membranes, whereas an anti-Gαi-3 antibody was used for the M2- and M4 membranes (Eli Lilly and Company, Indianapolis, IN). […] By use of a Wallac MicroBeta TriLux scintillation counter (PerkinElmer), the plates were centrifuged for 10 min at 700 × g and counted for 1 min per well. The incubations took place at room temperature in GTP-binding assay buffer (20 mM Hepes, 100 mm NaCl, 5 mM MgC12, pH 7.4). The data were analyzed by use of nonlinear regression for a sigmoidal concentration response curve (GraphPad Prism v. 4.0). Data were normalized to a full agonist response (100 μM oxotremorine-M). […] The antagonist percent inhibition data were normalized to data generated with an EC90 concentration of acetylcholine. The mean relative EC50, IC50, and %Emax, and pKi values were calculated as a mean of at least three independent experiments±SEM. In order to obtain relevant comparisons between subtypes, the experimental system is routinely calibrated with reference agonists (oxotremorine-M, pilocarpine, MCN-A343) to measure full and partial agonism as well as to ensure that the system is not under- or over-reporting functional efficacies. The radioligand binding assays have earlier been described.

[4] = biological target: T1, human M4 muscarinic receptor; assay: as above; format: biochemical
Experimental: as §1

[5] = biological target: T2, human M5 muscarinic receptor; assay: as above; format: biochemical
Experimental: as §1

M4AChR = biological target: T4, M4AChR (Homo sapiens, UniProt P08173); assay: Competitive radioligand binding
T4 sequence (P08173 1-479): T1 sequence (P08173 1-479)

[6] = agonist mode, negative log-transformed
[7] = antagonist mode, negative log-transformed
[8] = antagonist mode, maximal inhibition of EC90 agonist response

In the case of `CCCCSc1nsnc1[C@H]1CN2CCC[C@H]1C2` [BuTAC, (5R,6R)-6-(3-butylthio-1,2,5-thiadiazol-4-yl)-1-azabicyclo[3.2.1]octane], the “Emetic events (vomiting), monkeys with emesis” value (monkeys) is given as 7/7, the “Rel pEC50” value [1, 6] is given as 10.27 ± 10.31 M and the “% Emax” value ([1]; agonist mode) is given as 35.53 ± 11.51%. The “Rel pIC50” value [1, 7] was 9.19 ± 9.13 M, the “% Inhibition” value ([1]; antagonist mode) was 57.55 ± 3.22% and the “Rel pEC50” value [2, 6] was 7.63 ± 7.41 M. For the same compound, the “% Emax” value ([2]; agonist mode) was 10.77 ± 10.87%, the “Rel pIC50” value [2, 7] was 8.29 ± 8.16 M and the “% Inhibition” value ([2]; antagonist mode) was 96.31 ± 3.87%.
With `CCCSc1nsnc1[C@H]1CN2CCC[C@H]1C2` [PTAC, (5R,6R) 6-(3-propylthio-1,2,5-thiadiazol-4-yl)-1-azabicyclo-[3.2.1]-octane] the EC50 [3] was 0.372 nM, the IC50 [3] was 0.933 nM and the “% Inhibition” value [3, 8] was 54.3 ± 1.70%. It also gave an Emax ([3]; percentage of maximum 100 μM oxotremorine-M signal) of 38.1 ± 9.94%, an EC50 [4] of 1.48 nM and an Emax [4] of 19.4 ± 0.52%. For the same compound, the IC50 [4] was 24.5 nM, the “% Inhibition” value [4, 8] was 92.7 ± 7.49% and the EC50 [5] was 15.5 nM. The Emax [5] was 15.4 ± 2.73%, the IC50 ([5]; antagonist mode against EC90 of agonist, negative log-transformed, read-out: Rel pIC50 (converted)) was 107 nM and the “% Inhibition” value [5, 8] was 87.3 ± 7.07%. It also gave a Ki (M4AChR) of 0.282 nM.
